# Laboratory results taken from US12492173B2, “Herbicidal substituted N-tetrazolyl aryl carboxamides” (Bayer Aktiengesellschaft, priority 2019, dated 2025).
# What was measured:
# Format in all cases: in vivo
# Abutilon theophrasti = assay: Post-emergence herbicidal action, ABUTH; set-up: key: % herbicidal action vs untreated; 100 = plants died, 0 = like control
# Method in brief: (§1)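 After sowing into sandy loam, plants grew 2 to 3 weeks under greenhouse conditions until one leaf, then got a spray of compound as aqueous suspension or emulsion. Roughly three weeks on, activity was estimated visually against untreated pots.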
# Echinochloa crus-galli = assay: Pre-emergence herbicidal action, ECHCG; conditions: dosage 320 g/ha, scored visually after 3 weeks vs untreated controls (100% = plants have died)
# Method in brief: (§2)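 Sown pots (sandy loam) sprayed pre-emergence → greenhouse → visual rating at 3 weeks; % activity vs untreated control, 100% = dead.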
# Veronica persica = assay: Pre-emergence herbicidal action, VERPE; conditions: dosage 320 g/ha, scored visually after 3 weeks vs untreated controls (100% = plants have died)
# Method in brief: as §2
# Setaria viridis = assay: Pre-emergence herbicidal action, SETVI; conditions: dosage 320 g/ha, scored visually after 3 weeks vs untreated controls (100% = plants have died)
# Method in brief: as §2
# Viola tricolor = assay: Post-emergence herbicidal action, VIOTR; set-up: key: % herbicidal action vs untreated; 100 = plants died, 0 = like control
# Method in brief: as §1
# Amaranthus retroflexus = assay: Post-emergence herbicidal action, AMARE; set-up: key: % herbicidal action vs untreated; 100 = plants died, 0 = like control
# Method in brief: as §1
# [1] = comparative experiment, post-emergence, 5 g of a.i./ha
SMILES,herbicidal action ABUTH (Abutilon theophrasti; Dosage 80 g/ha),herbicidal activity ECHCG (Echinochloa crus-galli),herbicidal activity VERPE (Veronica persica),herbicidal activity SETVI (Setaria viridis),herbicidal action VIOTR (Viola tricolor; Dosage 80 g/ha),Herbicidal action against VIOTR (Viola tricolor; [1]),"Herbicidal action against VIOTR (Viola tricolor; post-emergence, dosage 80 g/ha)",herbicidal action AMARE (Amaranthus retroflexus; Dosage 80 g/ha),"Herbicidal action against AMARE (Amaranthus retroflexus; post-emergence, dosage 80 g/ha)","herbicidal action ABUTH (Abutilon theophrasti; post-emergence, dosage 80 g/ha)","herbicidal action VIOTR (Viola tricolor; post-emergence, dosage 80 g/ha)",Herbicidal action against AMARE (Amaranthus retroflexus; [1]),"herbicidal action AMARE (Amaranthus retroflexus; post-emergence, dosage 80 g/ha)"
COc1c(C(=O)Nc2nnnn2C)ccc(C(F)(F)F)c1CSC [Example 1-134],100,100%,100%,100%,100,100,100,100,100,,,,
CSCc1c(C(F)(F)F)ccc(C(=O)Nc2nnnn2C)c1SC [Example 1-161],90,100%,100%,100%,100,,,100,,,,,
CCSCc1c(C(F)F)ccc(C(=O)Nc2nnnn2C)c1SCC [Example 1-191],100,100%,100%,100%,100,,,80,,,,,
CSCc1c(C(F)(F)F)ccc(C(=O)Nc2nnnn2C)c1F [Example 1-242],90,100%,100%,100%,100,,,100,,,,,
Cn1nnnc1NC(=O)c1ccc(C(F)(F)F)c(C[S+](C)[O-])c1F (stereo not drawn) [Example 1-243],90,100%,100%,100%,100,,,90,,,,,
Cn1nnnc1NC(=O)c1ccc(C(F)(F)F)c(CS(C)(=O)=O)c1F [Example 1-244],90,100%,100%,100%,100,,,90,,,,,
CSCc1c(C(F)(F)F)ccc(C(=O)Nc2nnnn2C)c1Cl [Example 1-296],,100%,100%,100%,,100,,,,100%,100%,60,100%
Cn1nnnc1NC(=O)c1ccc(C(F)(F)F)c(CS(C)(=O)=O)c1Cl [Example 1-298],,100%,100%,100%,,,,,,80%,100%,100,100%
CCS(=O)(=O)Cc1c(C(F)(F)F)ccc(C(=O)Nc2nnnn2C)c1Cl [Example 1-301],80,100%,100%,100%,100,,,80,,,,,
